In series [1] the test system is MDA-MB-231. Nature of the series: Antiproliferative activity against human MDA-MB-231 cells after 72 hrs by MTT assay. The conditions noted are these: MDA-MB-231, 72 h.
Another series has as its system MCF7. Nature of the series: cells. The conditions noted are these: Homo sapiens, MCF7, 72 h.
Series [2] addresses Protein-tyrosine kinase 6 (Homo sapiens) (UniProt Q13882). Nature of the series: Inhibition of PTK6 phosphorylation in human MDA-MB-231 cells at 20 uM after 72 hrs by Western blot analysis. It counts as cell-based. A general note: A western blot detects proteins with antibodies after separation by electrophoresis.
In series [3] the test system is MDA-MB-231. Nature of the series: Antimigratory activity in human MDA-MB-231 cells after 24 hrs by wound healing assay. The following applies: MDA-MB-231, 24 h.
A short description of series [4]: Cytotoxicity against human MCF10A cells at => IC50 of antiproliferative assay after 24 hrs by MTT assay. The following applies: mcf-10a. For orientation: Tetrazolium assays rely on reduction of a dye to a coloured formazan, in cell work by metabolically active cells.
A short description of series [5]: Cytotoxicity against human MCF10A cells at => IC50 of wound healing assay after 24 hrs by MTT assay. The following applies: mcf-10a.

The source made the active and inactive calls. The rule behind the calls is not given here.

The text below walks through data of ChEMBL document CHEMBL3112510, “Optimization, pharmacophore modeling and 3D-QSAR studies of sipholanes as breast cancer migration and proliferation inhibitors” (Eur J Med Chem, 2014).

Protein-tyrosine kinase 6 (Homo sapiens), sequence (Q13882 whole entry, looked up): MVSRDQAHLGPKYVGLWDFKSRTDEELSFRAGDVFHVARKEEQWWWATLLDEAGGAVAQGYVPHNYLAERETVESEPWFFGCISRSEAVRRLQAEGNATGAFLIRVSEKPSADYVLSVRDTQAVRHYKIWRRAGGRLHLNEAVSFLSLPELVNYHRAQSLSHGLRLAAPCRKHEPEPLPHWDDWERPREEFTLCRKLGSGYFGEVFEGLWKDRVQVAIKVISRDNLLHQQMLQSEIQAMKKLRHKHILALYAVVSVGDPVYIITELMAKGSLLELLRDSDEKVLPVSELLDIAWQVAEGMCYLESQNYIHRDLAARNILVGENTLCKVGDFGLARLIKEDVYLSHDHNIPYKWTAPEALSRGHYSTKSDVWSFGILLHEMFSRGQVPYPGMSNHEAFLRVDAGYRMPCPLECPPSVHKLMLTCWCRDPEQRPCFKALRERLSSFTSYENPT

In the case of `CC1=CC[C@H]2[C@H](CC[C@]2(C)O)C(C)(C)[C@@H]1CC[C@H]1[C@]2(C)CC[C@H](OC(=O)c3ccccc3)C(C)(C)O[C@H]2CC[C@@]1(C)O`, the IC50 with MDA-MB-231 [1] was 16.1 µM; in the series on MCF7 it was 21 µM; with MDA-MB-231 [3], 7.9 µM; in the series with MDA-MB-231 [3] (read-out: pIC50 (converted)), 7.91 µM. Further, the inhibition result in series [2] was “Active”.
Turning to `CC1=CC[C@H]2[C@H](CC[C@]2(C)O)C(C)(C)[C@@H]1CC[C@H]1[C@]2(C)CC[C@H](OC(=O)c3ccc([N+](=O)[O-])o3)C(C)(C)O[C@H]2CC[C@@]1(C)O`, the Activity result in series [4] and in series [5] was “Non-toxic” each time. For the same molecule, the IC50 was 11.1 µM in the series on MDA-MB-231 [1], 21.3 µM with MCF7, 3.5 µM in the series on MDA-MB-231 [3] and 3.48 µM in the series with MDA-MB-231 [3] (read-out: pIC50 (converted)).
For the molecule `CC1=CC[C@H]2[C@H](CC[C@]2(C)O)C(C)(C)[C@@H]1CC[C@H]1[C@]2(C)CC[C@H](OC(=O)c3ccco3)C(C)(C)O[C@H]2CC[C@@]1(C)O`, the Activity result in series [4] and in series [5] was “Non-toxic” each time. Moreover, the IC50 in the series with MDA-MB-231 [1] is 14 µM; in the series with MCF7 it was 25.7 µM; in the series on MDA-MB-231 [3] it was 9.3 µM; in the series on MDA-MB-231 [3] (read-out: pIC50 (converted)), 9.29 µM.
